Test results: patent US10457710B2, “Antimicrobial peptides, their variants and uses” (priority 2015, dated 2019)
Where a SMILES comes first, the peptide text is derived from it. [ ]: non-standard residue; d: D form.

Experiments:
Type in all cases: cell-based
C. glabrata = assay: MIC, clinical yeast strains; conditions: D-form peptide, concentrations tested 0.125 to 128 μg/ml
Summary of the method: (§1)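 Clinical isolates were exposed to peptide concentrations from 0.125 up to 128 μg/ml at a starting density of 5.0×10^5 cfu/ml. Antifungal testing took place in potato dextrose broth at 37° C for 20 to 24 hours, and the end point was the absence of visible growth.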

C. parapsilosis = assay: MIC, clinical yeast strains; conditions: D-form peptide, concentrations tested 0.125 to 128 μg/ml
Summary of the method: as §1

Candida albicans = assay: MIC, clinical yeast strains; conditions: D-form peptide, concentrations tested 0.125 to 128 μg/ml
Summary of the method: as §1

[1] = test system: clinical strains of Acinetobacter baumannii; assay: MIC, microdilution, clinical strains; design: unit: μg/ml; conditions: 0.02% BSA, 0.2% acetic acid
Experimental: Minimum inhibition concetrations (MICs) were determined against Escherichia coli (ATCC 25922), Staphylococcus aureus (ATCC 25923), Klebsiella pneumoniae (ATCC 10031) and Pseudomonas aeruginosa (ATCC 27853). Also clinical strains of E. coli, K. pneumoniae, E. cloacae, P. aeruginosa, Serratia marcescens, Proteus mirabilis, S. pneumoniae, Acinetobacter baumannii, A. johnsonii and S. aureus were used for MICs assays. Additionally, clinical strains of yeast including Candida albicans, C. glabrata, C. parapsilosis and C. quillermondiae were used. The susceptibility of these microorganisms to Chain peptides were determined using micro broth dilution assay. Colonies of the respective microorganism from Muller Hinton (MH) agar plates incubated overnight were suspended in MH broth media and final concentration of microorganism was adjusted to 5.0×10^5 cfu/ml. An aliquot of 10 μl of each Chain peptide, or gentamicin, tetracycline as reference antibiotics were added in differing concentrations along with 90 μl of bacterial suspension to 96 well polypropylene plates and incubated at 37° C. for 20 to 24 hours. Concentrations of Chain peptides and reference antibiotics ranged from 0.125 to 128 μg/ml and the MICs were recorded as the lowest concentration with no visual growth of bacteria. Similarly, antifungal MICs were tested in Potato dextrose broth.
Clinical strains of yeasts including Candida albicans, C. glabrata, C. parapsilosis and C. quillermondiae were also tested with the 12 Chain peptides. The minimum inhibitory concentration (MICs) varied between these peptides and are presented in Tables 4a, 4b, 4c and 5a, 5b, 5c. Peptides Chain 105, 201 and 308 are broad spectrum antimicrobials with MICs between 0.5-32 μg/ml against all the bacteria and yeasts tested, except Serratia marcescens and Proteus mirabilis, against which the MICs were between 64-128 μg/ml. Peptide Chain 306 has narrow spectrum activity against E. coli at 1 μg/ml and for the rest of the bacterial strains at >32 μg/ml (FIG. 10c).

C. quillermondiae = assay: MIC, clinical yeast strains; conditions: clinical yeast strain 1; D-form peptide; concentrations tested 0.125 to 128 μg/ml
Summary of the method: as §1

[2] = test system: clinical strains of S. pneumoniae; assay: MIC, microdilution, clinical strains; conditions: 0.02% BSA, 0.2% acetic acid
Summary of the method: (§2)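 Overnight MH agar colonies were suspended in MH broth to 5.0×10^5 cfu/ml, mixed with serial peptide dilutions (0.125–128 μg/ml) and incubated at 37° C for 20 to 24 hours. Yeast MICs were run the same way in potato dextrose broth, and wells were scored visually.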

[3] = test system: clinical strains of E. coli; assay: MIC, microdilution, clinical strains; conditions: microdilution, Muller Hinton broth-cation adjusted, 0.02% BSA, 0.2% acetic acid
Summary of the method: as §2

[4] = test system: clinical strains of K. pneumoniae; assay: MIC, microdilution, clinical strains; conditions: 0.02% BSA, 0.2% acetic acid
Summary of the method: as §2

[5] = test system: clinical strains of S. aureus; assay: MIC, microdilution, clinical strains; conditions: 0.02% BSA, 0.2% acetic acid
Summary of the method: as §2

[6] = test system: clinical strains of P. aeruginosa; assay: MIC, microdilution, clinical strains; conditions: 0.02% BSA, 0.2% acetic acid
Summary of the method: as §2

[7] = test system: clinical strains of E. cloacae; assay: MIC, microdilution, clinical strains; conditions: 0.02% BSA, 0.2% acetic acid
Summary of the method: as §2

[8] = test system: clinical strains of Serratia marcescens; assay: MIC, microdilution, clinical strains; conditions: 0.02% BSA, 0.2% acetic acid
Summary of the method: as §2

[9] = test system: clinical strains of Proteus mirabilis; assay: MIC, microdilution, clinical strains; conditions: 0.02% BSA, 0.2% acetic acid
Summary of the method: as §2

`CC[C@@H](C)[C@@H](NC(=O)[C@@H](CC(C)C)NC(=O)[C@@H](CCCNC(=N)N)NC(=O)[C@H](N)CCCNC(=N)N)C(=O)N[C@H](Cc1c[nH]c2ccccc12)C(=O)N[C@H](CCCNC(=N)N)C(=O)N[C@H](CCCNC(=N)N)C(=O)N[C@H](Cc1ccccc1)C(=O)N[C@H](CCCCN)C(=O)N[C@H](Cc1c[nH]c2ccccc12)C(=O)N[C@H](CC(C)C)C(=O)N[C@H](CCCNC(=N)N)C(=O)O` [Chain204D] (H-[dR][dR][dL][dI][dW][dR][dR][dF][dK][dW][dL][dR]-OH) was tested, and the “Minimum inhibitory concentration, C. glabrata strain 1” value (C. glabrata; clinical yeast strain 1) was 4, the “Minimum inhibitory concentration, C. glabrata strain 2” value (C. glabrata; clinical yeast strain 2) was 8 and the “Minimum inhibitory concentration, C. glabrata strain 3” value (C. glabrata; clinical yeast strain 3) was 32. For the same molecule, the “Minimum inhibitory concentration, C. glabrata strain 4” value (C. glabrata; clinical yeast strain 4) was 32, the “Minimum inhibitory concentration, C. parapsilosis strain 1” value (C. parapsilosis; clinical yeast strain 1) was 4 and the “Minimum inhibitory concentration, C. parapsilosis strain 2” value (C. parapsilosis; clinical yeast strain 2) was 4. For the same molecule, the “Minimum inhibitory concentration, C. parapsilosis strain 3” value (C. parapsilosis; clinical yeast strain 3) was 8, the “Minimum inhibitory concentration, C. parapsilosis strain 4” value (C. parapsilosis; clinical yeast strain 4) was 8 and the “Minimum inhibitory concentration, Candida albicans strain 1” value (Candida albicans; clinical yeast strain 1) was 8. The “Minimum inhibitory concentration, Candida albicans strain 2” value (Candida albicans; clinical yeast strain 2) was 8, the “Minimum inhibitory concentration, Candida albicans strain 3” value (Candida albicans; clinical yeast strain 3) was 8 and the “Minimum inhibitory concentration, Candida albicans strain 4” value (Candida albicans; clinical yeast strain 4) was 8. The “Minimum inhibitory concentration, Candida albicans strain 5” value (Candida albicans; clinical yeast strain 5) was 8, the Minimum inhibitory concentration ([1]; Acinetobacter baumannii strain 1, Muller Hinton broth-cation adjusted) was 4 and the Minimum inhibitory concentration ([1]; Acinetobacter baumannii strain 2, Muller Hinton broth-cation adjusted) was 4. It also gave a Minimum inhibitory concentration ([1]; Acinetobacter baumannii strain 3, Muller Hinton broth-cation adjusted) of 4, a Minimum inhibitory concentration ([1]; Acinetobacter baumannii strain 4, Muller Hinton broth-cation adjusted) of 4 and a Minimum inhibitory concentration ([1]; Acinetobacter baumannii strain 5, Muller Hinton broth-cation adjusted) of 4. The “Minimum inhibitory concentration, C. quillermondiae strain 1” value (C. quillermondiae) was 4, the Minimum inhibitory concentration ([2]; Streptococcus pneumoniae strain 1, Muller Hinton broth-cation adjusted) was 4 and the Minimum inhibitory concentration ([2]; Streptococcus pneumoniae strain 2, Muller Hinton broth-cation adjusted) was 4. For the same molecule, the Minimum inhibitory concentration ([2]; Streptococcus pneumoniae strain 3, Muller Hinton broth-cation adjusted) was 4, the Minimum inhibitory concentration ([2]; Streptococcus pneumoniae strain 4, Muller Hinton broth-cation adjusted) was 4 and the Minimum inhibitory concentration ([2]; Streptococcus pneumoniae strain 5, Muller Hinton broth-cation adjusted) was 4. The Minimum inhibitory concentration ([3]; Escherichia coli strain 1) was 8, the Minimum inhibitory concentration ([3]; Escherichia coli strain 2) was 1 and the Minimum inhibitory concentration ([3]; Escherichia coli strain 3) was 1. For the same molecule, the Minimum inhibitory concentration ([3]; Escherichia coli strain 4) was 1, the Minimum inhibitory concentration ([3]; Escherichia coli strain 5) was 1 and the Minimum inhibitory concentration ([4]; Klebsiella pneumoniae strain 1, Muller Hinton broth-cation adjusted) was 8. For the same molecule, the Minimum inhibitory concentration ([4]; Klebsiella pneumoniae strain 2, Muller Hinton broth-cation adjusted) was 4, the Minimum inhibitory concentration ([4]; Klebsiella pneumoniae strain 3, Muller Hinton broth-cation adjusted) was 16 and the Minimum inhibitory concentration ([4]; Klebsiella pneumoniae strain 4, Muller Hinton broth-cation adjusted) was 4. It also gave a Minimum inhibitory concentration ([4]; Klebsiella pneumoniae strain 5, Muller Hinton broth-cation adjusted) of 2, a Minimum inhibitory concentration ([5]; Staphylococcus aureus strain 1, Muller Hinton broth-cation adjusted) of 1 and a Minimum inhibitory concentration ([5]; Staphylococcus aureus strain 2, Muller Hinton broth-cation adjusted) of 2. The Minimum inhibitory concentration ([5]; Staphylococcus aureus strain 3, Muller Hinton broth-cation adjusted) was 2, the Minimum inhibitory concentration ([5]; Staphylococcus aureus strain 4, Muller Hinton broth-cation adjusted) was 1 and the Minimum inhibitory concentration ([5]; Staphylococcus aureus strain 5, Muller Hinton broth-cation adjusted) was 1. The Minimum inhibitory concentration ([6]; Pseudomonas aeruginosa strain 1, Muller Hinton broth-cation adjusted) was 4, the Minimum inhibitory concentration ([6]; Pseudomonas aeruginosa strain 2, Muller Hinton broth-cation adjusted) was 16 and the Minimum inhibitory concentration ([6]; Pseudomonas aeruginosa strain 3, Muller Hinton broth-cation adjusted) was 8. The Minimum inhibitory concentration ([6]; Pseudomonas aeruginosa strain 4, Muller Hinton broth-cation adjusted) was 8, the Minimum inhibitory concentration ([6]; Pseudomonas aeruginosa strain 5, Muller Hinton broth-cation adjusted) was 4 and the Minimum inhibitory concentration ([7]; Enterobacter cloacae strain 1, Muller Hinton broth-cation adjusted) was 4. It also gave a Minimum inhibitory concentration ([7]; Enterobacter cloacae strain 2, Muller Hinton broth-cation adjusted) of 8, a Minimum inhibitory concentration ([7]; Enterobacter cloacae strain 3, Muller Hinton broth-cation adjusted) of 4 and a Minimum inhibitory concentration ([7]; Enterobacter cloacae strain 4, Muller Hinton broth-cation adjusted) of 8. It also gave a Minimum inhibitory concentration ([7]; Enterobacter cloacae strain 5, Muller Hinton broth-cation adjusted) of 2, a Minimum inhibitory concentration ([8]; Serratia marcescens strain 1, Muller Hinton broth-cation adjusted) of over 128 and a Minimum inhibitory concentration ([8]; Serratia marcescens strain 2, Muller Hinton broth-cation adjusted) of over 128. It also gave a Minimum inhibitory concentration ([8]; Serratia marcescens strain 3, Muller Hinton broth-cation adjusted) of 128, a Minimum inhibitory concentration ([8]; Serratia marcescens strain 4, Muller Hinton broth-cation adjusted) of over 128 and a Minimum inhibitory concentration ([8]; Serratia marcescens strain 5, Muller Hinton broth-cation adjusted) of over 128. It also gave a Minimum inhibitory concentration ([9]; Proteus mirabilis strain 1, Muller Hinton broth-cation adjusted) of over 128, a Minimum inhibitory concentration ([9]; Proteus mirabilis strain 2, Muller Hinton broth-cation adjusted) of 32 and a Minimum inhibitory concentration ([9]; Proteus mirabilis strain 3, Muller Hinton broth-cation adjusted) of 64. It also gave a Minimum inhibitory concentration ([9]; Proteus mirabilis strain 4, Muller Hinton broth-cation adjusted) of over 128 and a Minimum inhibitory concentration ([9]; Proteus mirabilis strain 5, Muller Hinton broth-cation adjusted) of over 128.
